Reference: patent US20190330224A1, “ACC INHIBITORS AND USES THEREOF” (Gilead Apollo, LLC, priority 2015, published 2019)
In brackets after ≈: the same amount, converted by molar mass.

Columns and labels:
Human ACC2 = Human ACC2 (Homo sapiens, UniProt O00763); experiment: In vitro ACC2 inhibition assay (ADP-Glo), human ACC2; type: biochemical; conditions: 5 nM ACC2, 20 μM ATP, 20 μM acetyl-CoA
Fungal ACC2 = Fungal ACC2 (UniProt Q00955); conditions: read-out: Fungal ACC2 (IC50, in vitro ACC2 inhibition)
C. krusei ATCC 6258 = experiment: Anti-Fungal Activity Assay (broth microtiter MIC), C. krusei; type: cell-based, Candida krusei; conditions: 3 replicates, MIC recorded at 48 h; for MIC: Pichia kudriavzevii, ATCC6258, 48 h, read-out: MIC C. krusei ATCC 6258
How it was run: (§1)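 Plate from frozen stock onto Sabouraud dextrose agar, 35° C overnight; swab colonies into RPMI 1640+MOPS; set density via standard curves; run CLSI M27-A3 broth microdilution; score MIC visually versus growth control at 48 h, soraphen additionally at 24 h.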

[1] = tested on: C. parapsilosis ATCC 22019; experiment: Anti-Fungal Activity Assay (broth microtiter MIC), C. parapsilosis; type: cell-based, Candida parapsilosis; conditions: 3 replicates, MIC recorded at 48 h; for MIC: Lodderomyces parapsilosis, ATCC22019, 48 h, read-out: MIC C. parapsilosis ATCC 22019
How it was run: as §1

C. albicans ATCC 90028 = experiment: Anti-Fungal Activity Assay (broth microtiter MIC), C. albicans; type: cell-based, Candida albicans; conditions: 3 replicates, MIC recorded at 48 h; for MIC: Candida albicans, ATCC90028, 48 h, read-out: MIC C. albicans ATCC 90028
How it was run: as §1

Fungal ACC2, sequence (Q00955 whole entry): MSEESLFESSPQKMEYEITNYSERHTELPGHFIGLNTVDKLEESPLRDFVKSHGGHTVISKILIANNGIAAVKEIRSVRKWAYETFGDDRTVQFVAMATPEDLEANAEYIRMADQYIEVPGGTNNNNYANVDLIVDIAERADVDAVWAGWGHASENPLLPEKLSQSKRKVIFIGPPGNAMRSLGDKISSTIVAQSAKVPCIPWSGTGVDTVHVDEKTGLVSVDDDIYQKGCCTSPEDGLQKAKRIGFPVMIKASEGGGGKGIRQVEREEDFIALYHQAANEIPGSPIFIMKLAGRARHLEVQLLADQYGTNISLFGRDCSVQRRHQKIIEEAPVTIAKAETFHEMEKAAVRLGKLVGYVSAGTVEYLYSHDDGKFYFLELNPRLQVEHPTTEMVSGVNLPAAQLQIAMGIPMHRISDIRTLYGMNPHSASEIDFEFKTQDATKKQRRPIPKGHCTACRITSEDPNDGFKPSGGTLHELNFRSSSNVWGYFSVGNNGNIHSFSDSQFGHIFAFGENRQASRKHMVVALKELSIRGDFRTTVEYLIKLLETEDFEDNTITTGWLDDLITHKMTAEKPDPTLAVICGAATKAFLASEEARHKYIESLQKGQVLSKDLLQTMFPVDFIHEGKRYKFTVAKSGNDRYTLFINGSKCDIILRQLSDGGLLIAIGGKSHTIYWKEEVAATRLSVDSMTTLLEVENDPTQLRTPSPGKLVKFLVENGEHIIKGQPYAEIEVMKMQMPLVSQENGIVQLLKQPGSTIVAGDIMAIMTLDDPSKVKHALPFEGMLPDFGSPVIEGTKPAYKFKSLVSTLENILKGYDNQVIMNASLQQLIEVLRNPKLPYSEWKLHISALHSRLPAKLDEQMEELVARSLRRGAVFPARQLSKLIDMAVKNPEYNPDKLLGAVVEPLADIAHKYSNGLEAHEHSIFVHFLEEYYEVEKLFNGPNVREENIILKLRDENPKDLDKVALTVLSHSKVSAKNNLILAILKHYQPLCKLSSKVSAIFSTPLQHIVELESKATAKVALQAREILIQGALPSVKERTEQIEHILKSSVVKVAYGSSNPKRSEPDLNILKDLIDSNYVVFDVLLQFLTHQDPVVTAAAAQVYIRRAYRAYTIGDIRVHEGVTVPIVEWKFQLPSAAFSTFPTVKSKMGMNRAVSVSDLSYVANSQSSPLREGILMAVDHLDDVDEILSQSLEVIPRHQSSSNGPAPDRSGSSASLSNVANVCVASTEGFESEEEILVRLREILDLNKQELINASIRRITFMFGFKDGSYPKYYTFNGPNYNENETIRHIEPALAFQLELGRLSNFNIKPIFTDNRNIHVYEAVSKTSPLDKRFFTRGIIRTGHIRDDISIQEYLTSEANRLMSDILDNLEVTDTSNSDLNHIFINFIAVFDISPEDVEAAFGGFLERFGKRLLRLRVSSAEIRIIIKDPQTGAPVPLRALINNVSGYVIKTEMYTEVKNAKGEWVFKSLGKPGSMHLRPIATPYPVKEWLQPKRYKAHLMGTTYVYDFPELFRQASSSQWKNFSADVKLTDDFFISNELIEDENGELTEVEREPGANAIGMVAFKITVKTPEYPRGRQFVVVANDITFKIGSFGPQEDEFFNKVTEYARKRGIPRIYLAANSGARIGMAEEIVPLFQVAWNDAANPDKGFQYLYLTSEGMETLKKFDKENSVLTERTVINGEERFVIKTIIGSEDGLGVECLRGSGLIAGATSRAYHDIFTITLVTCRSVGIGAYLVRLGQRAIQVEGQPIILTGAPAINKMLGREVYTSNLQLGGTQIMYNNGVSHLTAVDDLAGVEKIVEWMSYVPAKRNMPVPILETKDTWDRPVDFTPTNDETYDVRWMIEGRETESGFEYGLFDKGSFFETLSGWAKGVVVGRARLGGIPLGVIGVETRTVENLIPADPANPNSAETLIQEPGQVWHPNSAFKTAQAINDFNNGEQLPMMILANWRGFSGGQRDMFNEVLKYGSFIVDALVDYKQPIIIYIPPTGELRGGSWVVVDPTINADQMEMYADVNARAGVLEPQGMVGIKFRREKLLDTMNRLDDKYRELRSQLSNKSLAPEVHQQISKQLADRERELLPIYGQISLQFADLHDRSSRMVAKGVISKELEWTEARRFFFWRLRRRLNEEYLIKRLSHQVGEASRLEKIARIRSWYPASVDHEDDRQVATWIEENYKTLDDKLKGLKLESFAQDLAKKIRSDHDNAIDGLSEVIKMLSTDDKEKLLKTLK
Human ACC2, sequence (O00763 whole entry): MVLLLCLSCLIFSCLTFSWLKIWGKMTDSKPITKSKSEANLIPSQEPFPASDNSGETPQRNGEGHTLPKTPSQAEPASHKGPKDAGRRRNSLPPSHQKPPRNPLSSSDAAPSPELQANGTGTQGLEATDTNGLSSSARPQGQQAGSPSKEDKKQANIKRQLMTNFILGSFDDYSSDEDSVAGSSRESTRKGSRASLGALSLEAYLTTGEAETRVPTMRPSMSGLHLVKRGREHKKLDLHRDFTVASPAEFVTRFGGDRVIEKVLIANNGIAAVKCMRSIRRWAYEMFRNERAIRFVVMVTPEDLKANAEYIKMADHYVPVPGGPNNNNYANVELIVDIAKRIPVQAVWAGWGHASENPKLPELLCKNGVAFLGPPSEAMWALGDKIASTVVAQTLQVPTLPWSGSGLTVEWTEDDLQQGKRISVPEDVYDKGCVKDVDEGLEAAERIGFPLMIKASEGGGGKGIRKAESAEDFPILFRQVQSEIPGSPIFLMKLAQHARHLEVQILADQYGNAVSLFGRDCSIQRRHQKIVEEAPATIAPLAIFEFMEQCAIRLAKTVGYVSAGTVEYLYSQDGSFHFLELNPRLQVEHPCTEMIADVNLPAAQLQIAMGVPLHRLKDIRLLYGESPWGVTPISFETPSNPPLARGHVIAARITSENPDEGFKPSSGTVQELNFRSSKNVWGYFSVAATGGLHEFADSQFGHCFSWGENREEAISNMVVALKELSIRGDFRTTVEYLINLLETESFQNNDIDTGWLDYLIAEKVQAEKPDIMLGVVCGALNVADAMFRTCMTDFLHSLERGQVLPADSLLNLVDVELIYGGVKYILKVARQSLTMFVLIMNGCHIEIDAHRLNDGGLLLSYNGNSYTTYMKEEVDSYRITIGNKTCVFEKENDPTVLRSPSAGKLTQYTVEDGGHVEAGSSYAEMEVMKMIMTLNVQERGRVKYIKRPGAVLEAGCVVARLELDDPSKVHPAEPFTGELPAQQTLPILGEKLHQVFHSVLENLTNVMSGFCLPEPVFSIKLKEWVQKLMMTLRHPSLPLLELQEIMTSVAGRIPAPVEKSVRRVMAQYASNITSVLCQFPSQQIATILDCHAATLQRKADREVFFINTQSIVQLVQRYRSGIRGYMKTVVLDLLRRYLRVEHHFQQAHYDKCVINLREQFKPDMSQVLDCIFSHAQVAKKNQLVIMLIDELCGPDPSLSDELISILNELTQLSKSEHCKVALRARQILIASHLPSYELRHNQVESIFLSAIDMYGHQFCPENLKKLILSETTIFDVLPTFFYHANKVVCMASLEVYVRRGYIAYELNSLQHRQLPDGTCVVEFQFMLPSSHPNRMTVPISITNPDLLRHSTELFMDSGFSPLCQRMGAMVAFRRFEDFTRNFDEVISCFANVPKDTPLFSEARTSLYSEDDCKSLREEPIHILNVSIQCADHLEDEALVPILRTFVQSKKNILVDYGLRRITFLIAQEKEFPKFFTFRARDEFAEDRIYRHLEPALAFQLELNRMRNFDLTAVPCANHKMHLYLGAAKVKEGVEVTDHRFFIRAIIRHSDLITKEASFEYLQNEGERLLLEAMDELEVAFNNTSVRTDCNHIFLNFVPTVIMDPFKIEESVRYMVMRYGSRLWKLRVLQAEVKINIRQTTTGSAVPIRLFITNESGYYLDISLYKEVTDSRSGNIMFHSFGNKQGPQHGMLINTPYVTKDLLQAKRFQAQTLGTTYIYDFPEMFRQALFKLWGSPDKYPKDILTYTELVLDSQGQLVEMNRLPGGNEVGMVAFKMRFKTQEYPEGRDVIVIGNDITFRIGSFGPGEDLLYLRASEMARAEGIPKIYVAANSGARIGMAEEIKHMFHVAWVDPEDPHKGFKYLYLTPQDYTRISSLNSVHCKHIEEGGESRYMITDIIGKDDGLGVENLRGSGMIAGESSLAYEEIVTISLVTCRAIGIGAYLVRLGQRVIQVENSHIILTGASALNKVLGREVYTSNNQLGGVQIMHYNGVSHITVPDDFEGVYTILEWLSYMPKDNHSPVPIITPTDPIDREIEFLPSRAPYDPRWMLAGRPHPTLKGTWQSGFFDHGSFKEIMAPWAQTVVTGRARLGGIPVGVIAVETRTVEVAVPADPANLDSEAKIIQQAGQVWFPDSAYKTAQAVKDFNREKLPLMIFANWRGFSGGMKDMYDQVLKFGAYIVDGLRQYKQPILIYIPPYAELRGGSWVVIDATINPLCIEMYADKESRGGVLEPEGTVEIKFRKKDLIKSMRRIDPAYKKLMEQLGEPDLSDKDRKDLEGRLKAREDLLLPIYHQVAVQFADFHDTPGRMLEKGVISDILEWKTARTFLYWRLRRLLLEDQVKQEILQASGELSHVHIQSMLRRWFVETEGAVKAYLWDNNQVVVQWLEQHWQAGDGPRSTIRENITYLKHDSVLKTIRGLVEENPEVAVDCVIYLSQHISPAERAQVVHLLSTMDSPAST

SMILES | IC50 (Human ACC2) [nM] | IC50 (Fungal ACC2) [nM] | MIC C. krusei ATCC 6258 (C. krusei ATCC 6258) | MIC C. parapsilosis ATCC 22019 [1] | MIC C. albicans ATCC 90028 (C. albicans ATCC 90028) | MIC (C. krusei ATCC 6258) [µg/mL] | MIC [1] [µg/mL] | MIC (C. albicans ATCC 90028) [µg/mL]
COc1ccc(F)cc1[C@H](COc1nc2sc(-n3nccn3)c(C)c2c(=O)n1C1CC(=O)N(C)C1)OCCO (stereo in doubt) [Compound I-113, 2-((R)-2-(5-fluoro-2-methoxyphenyl)-2-(2-hydroxy-ethoxy)ethoxy)-5-methyl-3-((S)-1-methyl-5-oxopyrrolidin-3-yl)-6-(2H-1,2,3-triazol-2-yl)thieno[2,3-d]pyrimidin-4(3H)-one] | > 1000 | 10 to 100 | C (provided an MIC of 2.1-4.0 μg/mL) | C (provided an MIC of 2.1-4.0 μg/mL) | C (provided an MIC of 2.1-4.0 μg/mL) | – | – | –
COc1ccc(F)cc1C(=O)Cn1c(=O)n(C2CCN(C)C2=O)c(=O)c2c(C)c(-n3nccn3)sc21 (stereo in doubt) [Compound I-162, (R)-1-(2-(5-fluoro-2-methoxyphenyl)-2-oxoethyl)-5-methyl-3-(1-methyl-2-oxopyrrolidin-3-yl)-6-(2H-1,2,3-triazol-2-yl)thieno[2,3-d]pyrimidine-2,4(1H,3H)-dione] | 100 to 1000 | 10 to 100 | C (provided an MIC of 2.1-4.0 μg/mL) | C (provided an MIC of 2.1-4.0 μg/mL) | C (provided an MIC of 2.1-4.0 μg/mL) | – | – | –
COCCO[C@@H](Cn1c(=O)n(C2CCNC2=O)c(=O)c2c(C)c(-n3nccn3)sc21)c1cc(F)ccc1OC (stereo partly drawn) [Compound I-1, 1-((R)-2-(5-fluoro-2-methoxyphenyl)-2-(2-methoxyethoxy)ethyl)-5-methyl-3-(2-oxopyrrolidin-3-yl)-6-(2H-1,2,3-triazol-2-yl)thieno[2,3-d]pyrimidine-2,4(1H,3H)-dione] | 2 to 10 | 0.7 to 2 | – | – | – | 2.1 to 4 (≈ 3.76 to 7.16 µM) | 2.1 to 4 (≈ 3.76 to 7.16 µM) | 2.1 to 4 (≈ 3.76 to 7.16 µM)
COCCO[C@@H](Cn1c(=O)n(C2CCN(C)C2=O)c(=O)c2c(C)c(-n3nccn3)sc21)c1cc(F)ccc1OC (stereo partly drawn) [Compound I-2, 1-((R)-2-(5-fluoro-2-methoxyphenyl)-2-(2-methoxy-ethoxy)ethyl)-5-methyl-3-(1-methyl-2-oxopyrrolidin-3-yl)-6-(2H-1,2,3-triazol-2-yl)thieno[2,3-d]pyrimidine-2,4(1H,3H)-dione] | 10 to 100 | 2 to 10 | – | – | – | 2.1 to 4 (≈ 3.67 to 6.99 µM) | 2.1 to 4 (≈ 3.67 to 6.99 µM) | 2.1 to 4 (≈ 3.67 to 6.99 µM)
COCCO[C@@H](Cn1c(=O)n(C2CCN(C(C)C)C2=O)c(=O)c2c(C)c(-n3nccn3)sc21)c1cc(F)ccc1OC (stereo partly drawn) [Compound I-4, 1-((R)-2-(5-fluoro-2-methoxyphenyl)-2-(2-methoxy-ethoxy)ethyl)-3-(1-isopropyl-2-oxopyrrolidin-3-yl)-5-methyl-6-(2H-1,2,3-triazol-2-yl)thieno[2,3-d]pyrimidine-2,4(1H,3H)-dione] | 10 to 100 | 2 to 10 | – | – | – | 2.1 to 4 (≈ 3.5 to 6.66 µM) | 2.1 to 4 (≈ 3.5 to 6.66 µM) | 2.1 to 4 (≈ 3.5 to 6.66 µM)
COc1ccc(F)cc1[C@H](Cn1c(=O)n(C2CCNC2=O)c(=O)c2c(C)c(-n3nccn3)sc21)OCCO (stereo partly drawn) [Compound I-5, 1-((R)-2-(5-fluoro-2-methoxyphenyl)-2-(2-hydroxyethoxy)ethyl)-5-methyl-3-(2-oxopyrrolidin-3-yl)-6-(2H-1,2,3-triazol-2-yl)thieno[2,3-d]pyrimidine-2,4(1H,3H)-dione] | 2 to 10 | 0.7 to 2 | – | – | – | 2.1 to 4 (≈ 3.86 to 7.35 µM) | 2.1 to 4 (≈ 3.86 to 7.35 µM) | 2.1 to 4 (≈ 3.86 to 7.35 µM)
COCCO[C@@H](Cn1c(=O)n(C2CCCNC2=O)c(=O)c2c(C)c(-n3nccn3)sc21)c1cc(F)ccc1OC (stereo partly drawn) [Compound I-13, 1-((R)-2-(5-fluoro-2-methoxyphenyl)-2-(2-methoxy-ethoxy)ethyl)-5-methyl-3-(2-oxopiperidin-3-yl)-6-(2H-1,2,3-triazol-2-yl)thieno[2,3-d]pyrimidine-2,4(1H,3H)-dione] | 10 to 100 | 0.7 to 2 | – | – | – | 2.1 to 4 (≈ 3.67 to 6.99 µM) | 2.1 to 4 (≈ 3.67 to 6.99 µM) | 2.1 to 4 (≈ 3.67 to 6.99 µM)
CCN1CCCC(n2c(=O)c3c(C)c(-n4nccn4)sc3n(C[C@H](OCCOC)c3cc(F)ccc3OC)c2=O)C1=O (stereo partly drawn) [Compound I-15, 3-(1-ethyl-2-oxopiperidin-3-yl)-1-((R)-2-(5-fluoro-2-methoxyphenyl)-2-(2-methoxyethoxy)ethyl)-5-1-methyl-6-(2H-1,2,3-triazol-2-yl)thieno[2,3-d]pyrimidine-2,4(1H,3H)-dione] | 10 to 100 | 10 to 100 | – | – | – | 2.1 to 4 (≈ 3.5 to 6.66 µM) | 2.1 to 4 (≈ 3.5 to 6.66 µM) | 2.1 to 4 (≈ 3.5 to 6.66 µM)
COCCO[C@@H](Cn1c(=O)n(C2CCCN(C(C)C)C2=O)c(=O)c2c(C)c(-n3nccn3)sc21)c1cc(F)ccc1OC (stereo partly drawn) [Compound I-16, 1-((R)-2-(5-fluoro-2-methoxyphenyl)-2-(2-methoxy-ethoxy)ethyl)-3-(1-isopropyl-2-oxopiperidin-3-yl)-5-methyl-6-(2H-1,2,3-triazol-2-yl)thieno[2,3-d]pyrimidine-2,4(1H,3H)-dione] | 100 to 1000 | 2 to 10 | – | – | – | 2.1 to 4 (≈ 3.42 to 6.51 µM) | 2.1 to 4 (≈ 3.42 to 6.51 µM) | 2.1 to 4 (≈ 3.42 to 6.51 µM)
COc1ccc(F)cc1[C@H](Cn1c(=O)n(C2CCCN(C)C2=O)c(=O)c2c(C)c(-n3nccn3)sc21)OCCO (stereo partly drawn) [Compound I-18, 1-((R)-2-(5-fluoro-2-methoxyphenyl)-2-(2-hydroxy-ethoxy)ethyl)-5-methyl-3-(1-methyl-2-oxopiperidin-3-yl)-6-(2H-1,2,3-triazol-2-yl)thieno[2,3-d]pyrimidine-2,4(1H,3H)-dione] | 10 to 100 | 2 to 10 | – | – | – | 2.1 to 4 (≈ 3.67 to 6.99 µM) | 2.1 to 4 (≈ 3.67 to 6.99 µM) | 2.1 to 4 (≈ 3.67 to 6.99 µM)
COc1ccc(F)cc1[C@H](Cn1c(=O)n(C2CCCN(C)C2=O)c(=O)c2c(C)c(-n3nccn3)sc21)OC1CCOCC1 (stereo partly drawn) [Compound I-22, 1-((R)-2-(5-fluoro-2-methoxyphenyl)-2-((tetrahydro-2H-pyran-4-yl)oxy)ethyl)-5-methyl-3-(1-methyl-2-oxopiperidin-3-yl)-6-(2H-1,2,3-triazol-2-yl)thieno[2,3-d]pyrimidine-2,4(1H,3H)-dione] | 10 to 100 | 0.7 to 2 | – | – | – | 0.25 to 1 (≈ 0.408 to 1.63 µM) | 0.25 to 1 (≈ 0.408 to 1.63 µM) | 0.25 to 1 (≈ 0.408 to 1.63 µM)
CCN1CCCC(n2c(=O)c3c(C)c(-n4nccn4)sc3n(C[C@H](OC3CCOCC3)c3cc(F)ccc3OC)c2=O)C1=O (stereo partly drawn) [Compound I-23, 3-(1-ethyl-2-oxopiperidin-3-yl)-1-((R)-2-(5-fluoro-2-methoxyphenyl)-2-((tetrahydro-2H-pyran-4-yl)oxy)ethyl)-5-methyl-6-(2H-1,2,3-triazol-2-yl)thieno[2,3-d]pyrimidine-2,4(1H,3H)-dione] | 2 to 10 | 0.7 to 2 | – | – | – | 0.25 to 1 (≈ 0.399 to 1.6 µM) | 0.25 to 1 (≈ 0.399 to 1.6 µM) | 0.25 to 1 (≈ 0.399 to 1.6 µM)
COc1ccc(F)cc1[C@H](Cn1c(=O)n([C@H]2CCN(C)C2=O)c(=O)c2c(C)c(-n3nccn3)sc21)OC1CCOCC1 [Compound I-35, 1-((R)-2-(5-fluoro-2-methoxyphenyl)-2-((tetrahydro-2H-pyran-4-yl)oxy)ethyl)-5-methyl-3-((S)-1-methyl-2-oxopyrrolidin-3-yl)-6-(2H-1,2,3-triazol-2-yl)thieno[2,3-d]pyrimidine-2,4(1H,3H)-dione] | 10 to 100 | 0.7 to 2 | – | – | – | 2.1 to 4 (≈ 3.51 to 6.68 µM) | 2.1 to 4 (≈ 3.51 to 6.68 µM) | 2.1 to 4 (≈ 3.51 to 6.68 µM)
COc1ccc(F)cc1[C@H](Cn1c(=O)n([C@@H]2CCCN(C)C2=O)c(=O)c2c(C)c(-n3nccn3)sc21)OC1CCOCC1 [Compound I-40, 1-((R)-2-(5-fluoro-2-methoxyphenyl)-2-((tetrahydro-2H-pyran-4-yl)oxy)ethyl)-5-methyl-3-((R)-1-methyl-2-oxopiperidin-3-yl)-6-(2H-1,2,3-triazol-2-yl)thieno[2,3-d]pyrimidine-2,4(1H,3H)-dione] | 10 to 100 | 0.7 to 2 | – | – | – | 1.1 to 2 (≈ 1.8 to 3.26 µM) | 0.25 to 1 (≈ 0.408 to 1.63 µM) | 1.1 to 2 (≈ 1.8 to 3.26 µM)
COc1ccccc1[C@H](Cn1c(=O)n(C2CCNC2=O)c(=O)c2c(C)c(-c3ncco3)sc21)OCCO (stereo partly drawn) [Compound I-53, 1-((R)-2-(2-hydroxyethoxy)-2-(2-methoxyphenyl)ethyl)-5-methyl-6-(oxazol-2-yl)-3-(2-oxopyrrolidin-3-yl)thieno[2,3-d]pyrimidine-2,4(1H,3H)-dione] | 10 to 100 | 10 to 100 | – | – | – | 2.1 to 4 (≈ 3.99 to 7.6 µM) | 2.1 to 4 (≈ 3.99 to 7.6 µM) | 2.1 to 4 (≈ 3.99 to 7.6 µM)
COc1ccccc1[C@H](Cn1c(=O)n(C2CCN(C)C2=O)c(=O)c2c(C)c(-c3ncco3)sc21)OCCO (stereo partly drawn) [Compound I-54, 1-((R)-2-(2-hydroxyethoxy)-2-(2-methoxyphenyl)ethyl)-5-methyl-3-(1-methyl-2-oxopyrrolidin-3-yl)-6-(oxazol-2-yl)thieno[2,3-d]pyrimidine-2,4(1H,3H)-dione] | 10 to 100 | 2 to 10 | – | – | – | 2.1 to 4 (≈ 3.88 to 7.4 µM) | 2.1 to 4 (≈ 3.88 to 7.4 µM) | 2.1 to 4 (≈ 3.88 to 7.4 µM)
COc1ccc(F)cc1[C@H](Cn1c(=O)n(C2CCN(C)C2=O)c(=O)c2c(C)c(-c3ncco3)sc21)OCCO (stereo partly drawn) [Compound I-55, 1-((R)-2-(5-fluoro-2-methoxyphenyl)-2-(2-hydroxy-ethoxy)ethyl)-5-methyl-3-(-methyl-2-oxopyrrolidin-3-yl)-6-(oxazol-2-yl)thieno[2,3-d]pyrimidine-2,4(1H,3H)-dione] | 10 to 100 | 0.7 to 2 | – | – | – | 2.1 to 4 (≈ 3.76 to 7.16 µM) | 2.1 to 4 (≈ 3.76 to 7.16 µM) | 2.1 to 4 (≈ 3.76 to 7.16 µM)
